Reference: publication PMC3111596 (Biochemistry, 2011)

Biological target: N-terminal truncated LSD1 (171–852 aa) (Homo sapiens, UniProt O60341)
Experiment: LSD1-folate binding by back-scattering interferometry
Conditions: N-terminal truncated LSD1 vs full-size LSD1

Nc1nc2c(c(=O)[nH]1)NC(CNc1ccc(C(=O)N[C@@H](CCC(=O)N[C@@H](CCC(=O)N[C@@H](CCC(=O)N[C@@H](CCC(=O)N[C@@H](CCC(=O)O)C(=O)O)C(=O)O)C(=O)O)C(=O)O)C(=O)O)cc1)CN2 (mixture of isomers) [(6R,S)-THF-Glu5, Tetrahydrofolate pentaglutamate]
Affinity of truncated LSD1 compared with full-size protein: same affinity as the full-size protein
